Experimental data from patent US7695930B2, “Method for the detection, identification and/or quantification of microoganisms with peptidase activity using phenoxazinone derivatives as enzyme substrates” (Biomerieux, priority 2003, dated 2010).
Each block holds one molecule with its values, some of them ahead of it.

Assays:
Format in all cases: cell-based
Details in all cases: 50 mg/l
Staphylococcus aureus = test: Leucine-peptidase detection on agar medium (Example 11)
Description: (§1) The detection medium was prepared by mixing 1.4 g of biogelytone (bioMérieux), 0.84 g of meat extract (bioMérieux), 2.24 g of NaCl (Merck), 280 μl of a solution of IPTG (isopropylthio-β-D-galactopyranoside, BIOSYNTH) in water (concentration 10 g/l) and 4.2 g of European agar (bioMérieux).
(§2) The substrate of the invention obtained in Example 2, in which the amino acid is leucine (leucine-9-aminobenzo[a]phenoxazin-5-one or Leu-ABP), or else a substrate of the prior art, which is leucine-aminomethylcoumarin (Leu-AMC, BACHEM), was then added in the following way: 280 ml of osmosed water were added to the medium, and the mixture was melted in a waterbath at 100° C. The mixture was autoclaved for 15 min at 121° C. and cooled to 50° C. in a waterbath.
(§3) The medium was then poured into Petri dishes.
(§4) The coloration of these colonies, the diffusion, and also the intensity of this coloration were noted.
(§5) The results were expressed as intensity of coloration using an arbitrary scale ranging from 0 to 4 as a basis and also as diffusion also using an arbitrary scale ranging from 0 to 4 as a basis.

Escherichia coli = test: as above
Description: as §1, §2, §3, §4, §5

Candida albicans = test: as above
Description: as §1, §2, §3, §4, §5

Klebsellia pneumoniae = test: as above
Description: as §1, §2, §3, §4, §5

Citrobacter freundii = test: as above
Description: as §1, §2, §3, §4, §5

Enterobacter cloaccae = test: as above
Description: as §1, §2, §3, §4, §5

Enterococcus faecalis = test: as above
Description: as §1, §2, §3, §4, §5

Serratia marcescens = test: as above
Description: as §1, §2, §3, §4, §5

Pseudomonas aeruginosa = test: as above
Description: as §1, §2, §3, §4, §5

[1] = system: Staphylococcus epidermis (NCTC 11047); test: Alanine peptidase detection, substrates with one to three amino acids (Example 15); parameters: key to color of the colony: R=pink; RP=pale pink; I=colorless
Description: (§6) 1000 ml of Columbia medium was melted in a waterbath at 100° C. and autoclaved at 121° C. for 15 min. It was then cooled to 50° C. in a waterbath.
(§7) This medium was separated into 5 flasks of 200 ml, and then, added at 50° C., as substrates, was that of Example 2 for which A is: • medium 1: L-alanine (L-alanine-9-aminobenzo[a]phenoxazin-5-one or A-ABP), • medium 2: L-alanine-L-alanine (L-alanine-L-alanine-9-aminobenzo-[a]phenoxazin-5-one or AA-ABP), • medium 3: L-alanine-L-alanine-L-alanine (L-alanine-L-alanine-L-alanine-9-aminobenzo[a]phenoxazin-5-one or AAA-ABP), • medium 4: L-alanine-glycine (L-alanine-glycine-9-aminobenzo[a]phenoxazin-5-one or AG-ABP), and • medium 5: glycine-L-alanine (glycine-L-alanine-9-aminobenzo[a]phenoxazin-5-one or GA-ABP), each substrate being solubilized in DMSO and used at a final concentration of 50 mg/l.
as §3
(§8) Nine microorganism strains derived from the Applicant's collection, suspended in physiological saline, were seeded in colonies on the media prepared in point 15.1 above according to a multipoint inoculation in a proportion of 15 000 cfu/spot. The dishes were incubated at 37° C. for 48 hours. The colonies formed were examined visually after incubation for 24 and 48 hours.
(§9) The results are expressed in Tables 7 and 8 hereinafter according to the rules and the nomenclature stated in paragraph 11.3 and where R=pink, RP=pale pink and I=colorless.

[2] = system: Acinetobacter baumannii (ATCC 19606); test: as above; parameters: key to color of the colony: R=pink; RP=pale pink; I=colorless
Description: as §6, §7, §3, §8, §9

[3] = system: Listeria monocytogenes (NCTC 11994); test: as above; parameters: key to color of the colony: R=pink; RP=pale pink; I=colorless
Description: as §6, §7, §3, §8, §9

[4] = system: Enterobacter clocae (NCTC 11936); test: as above; parameters: key to color of the colony: R=pink; RP=pale pink; I=colorless
Description: as §6, §7, §3, §8, §9

[5] = system: Micrococcus luteus (NCTC611); test: as above; parameters: key to color of the colony: R=pink; RP=pale pink; I=colorless
Description: as §6, §7, §3, §8, §9

[6] = system: Staphylococcus aureus (NCTC 6571); test: as above; parameters: key to color of the colony: R=pink; RP=pale pink; I=colorless
Description: as §6, §7, §3, §8, §9

[7] = system: Escherichia coli (NCTC 10418); test: as above; parameters: key to color of the colony: R=pink; RP=pale pink; I=colorless
Description: as §6, §7, §3, §8, §9

[8] = system: Pseudomonas aerigunosa (NCTC 10038); test: as above; parameters: key to color of the colony: R=pink; RP=pale pink; I=colorless
Description: as §6, §7, §3, §8, §9

growth diameter (Klebsellia pneumoniae; 24 h): 1.8 mm
intensity of coloration, scale 0 to 4 (Klebsellia pneumoniae; 24 h): 3
growth diameter (Klebsellia pneumoniae; 48 h): 1.8 mm
intensity of coloration, scale 0 to 4 (Klebsellia pneumoniae; 48 h): 3
growth diameter (Citrobacter freundii; 24 h): 0.8 mm
intensity of coloration, scale 0 to 4 (Citrobacter freundii; 24 h): 3
growth diameter (Citrobacter freundii; 48 h): 1 mm
intensity of coloration, scale 0 to 4 (Citrobacter freundii; 48 h): 3
growth diameter (Enterobacter cloaccae; 24 h): 0.8 mm
intensity of coloration, scale 0 to 4 (Enterobacter cloaccae; 24 h): 3
growth diameter (Enterobacter cloaccae; 48 h): 0.8 mm
intensity of coloration, scale 0 to 4 (Enterobacter cloaccae; 48 h): 3
growth diameter (Enterococcus faecalis; 24 h): 0.4 mm
intensity of coloration, scale 0 to 4 (Enterococcus faecalis; 24 h): 0.5
growth diameter (Enterococcus faecalis; 48 h): 0.4 mm
intensity of coloration, scale 0 to 4 (Enterococcus faecalis; 48 h): 1.5
growth diameter (Serratia marcescens; 24 h): 0.5 mm
intensity of coloration, scale 0 to 4 (Serratia marcescens; 24 h): 2
growth diameter (Serratia marcescens; 48 h): 0.7 mm
intensity of coloration, scale 0 to 4 (Serratia marcescens; 48 h): 3
growth diameter (Pseudomonas aeruginosa; 24 h): 2 mm
intensity of coloration, scale 0 to 4 (Pseudomonas aeruginosa; 24 h): 1
growth diameter (Pseudomonas aeruginosa; 48 h): 2 mm
intensity of coloration, scale 0 to 4 (Pseudomonas aeruginosa; 48 h): 3
Molecule: Cc1cc(=O)oc2cc(NC(=O)[C@@H](N)CC(C)C)ccc12 [Leu-AMC, leucine-aminomethylcoumarin, reference compound]
growth diameter (Staphylococcus aureus; 24 h): 1.7 mm
intensity of coloration, scale 0 to 4 (Staphylococcus aureus; 24 h): 2.5
growth diameter (Staphylococcus aureus; 48 h): 1.7 mm
intensity of coloration, scale 0 to 4 (Staphylococcus aureus; 48 h): 3
growth diameter (Escherichia coli; 24 h): 1.8 mm
intensity of coloration, scale 0 to 4 (Escherichia coli; 24 h): 3
growth diameter (Escherichia coli; 48 h): 1.8 mm
intensity of coloration, scale 0 to 4 (Escherichia coli; 48 h): 3
growth diameter (Candida albicans; 24 h): 0.4 mm
intensity of coloration, scale 0 to 4 (Candida albicans; 24 h): 0.25
growth diameter (Candida albicans; 48 h): 0.5 mm
intensity of coloration, scale 0 to 4 (Candida albicans; 48 h): 1.5

Molecule: L-alanine-L-alanine-9-aminobenzo-[a]phenoxazin-5-one [AA-ABP]
color of the colony ([1]; 24 h): I
growth diameter ([1]; 24 h): 2 mm
color of the colony ([1]; 48 h): I
growth diameter ([1]; 48 h): 2 mm
color of the colony ([2]; 24 h): R
growth diameter ([2]; 24 h): 3 mm
color of the colony ([2]; 48 h): R
growth diameter ([2]; 48 h): 3 mm
color of the colony ([3]; 24 h): R
growth diameter ([3]; 24 h): 2 mm
color of the colony ([3]; 48 h): R
growth diameter ([3]; 48 h): 2 mm
color of the colony ([4]; 24 h): R
growth diameter ([4]; 24 h): 3 mm
color of the colony ([4]; 48 h): R
growth diameter ([4]; 48 h): 3 mm
growth diameter ([5]; 24 h): 0 mm
growth diameter ([5]; 48 h): 0 mm
color of the colony ([6]; 24 h): I
growth diameter ([6]; 24 h): 3 mm
color of the colony ([6]; 48 h): I
growth diameter ([6]; 48 h): 2 mm
color of the colony ([7]; 24 h): R
growth diameter ([7]; 24 h): 3 mm
color of the colony ([7]; 48 h): R
growth diameter ([7]; 48 h): 3 mm
color of the colony ([8]; 24 h): R
growth diameter ([8]; 24 h): 3 mm
color of the colony ([8]; 48 h): R
growth diameter ([8]; 48 h): 3 mm

Molecule: L-alanine-L-alanine-L-alanine-9-aminobenzo[a]phenoxazin-5-one [AAA-ABP]
color of the colony ([1]; 24 h): I
growth diameter ([1]; 24 h): 2 mm
color of the colony ([1]; 48 h): I
growth diameter ([1]; 48 h): 2 mm
color of the colony ([2]; 24 h): R
growth diameter ([2]; 24 h): 3 mm
color of the colony ([2]; 48 h): R
growth diameter ([2]; 48 h): 3 mm
color of the colony ([3]; 24 h): R
growth diameter ([3]; 24 h): 2 mm
color of the colony ([3]; 48 h): R
growth diameter ([3]; 48 h): 2 mm
color of the colony ([4]; 24 h): R
growth diameter ([4]; 24 h): 3 mm
color of the colony ([4]; 48 h): R
growth diameter ([4]; 48 h): 3 mm
color of the colony ([5]; 24 h): R
growth diameter ([5]; 24 h): 1 mm
color of the colony ([5]; 48 h): R
growth diameter ([5]; 48 h): 3 mm
color of the colony ([6]; 24 h): I
growth diameter ([6]; 24 h): 3 mm
color of the colony ([6]; 48 h): I
growth diameter ([6]; 48 h): 3 mm
color of the colony ([7]; 24 h): R
growth diameter ([7]; 24 h): 3 mm
color of the colony ([7]; 48 h): R
growth diameter ([7]; 48 h): 3 mm
color of the colony ([8]; 24 h): R
growth diameter ([8]; 24 h): 3 mm
color of the colony ([8]; 48 h): R
growth diameter ([8]; 48 h): 3 mm

Molecule: L-alanine-glycine-9-aminobenzo[a]phenoxazin-5-one [AG-ABP]
color of the colony ([1]; 24 h): I
growth diameter ([1]; 24 h): 3 mm
color of the colony ([1]; 48 h): I
growth diameter ([1]; 48 h): 3 mm
color of the colony ([2]; 24 h): RP
growth diameter ([2]; 24 h): 3 mm
color of the colony ([2]; 48 h): R
growth diameter ([2]; 48 h): 3 mm
color of the colony ([3]; 24 h): I
growth diameter ([3]; 24 h): 2 mm
color of the colony ([3]; 48 h): I
growth diameter ([3]; 48 h): 3 mm
color of the colony ([4]; 24 h): R
growth diameter ([4]; 24 h): 3 mm
color of the colony ([4]; 48 h): R
growth diameter ([4]; 48 h): 3 mm
color of the colony ([5]; 24 h): I
growth diameter ([5]; 24 h): 1 mm
color of the colony ([5]; 48 h): R
growth diameter ([5]; 48 h): 3 mm
color of the colony ([6]; 24 h): I
growth diameter ([6]; 24 h): 3 mm
color of the colony ([6]; 48 h): I
growth diameter ([6]; 48 h): 3 mm
color of the colony ([7]; 24 h): R
growth diameter ([7]; 24 h): 3 mm
color of the colony ([7]; 48 h): R
growth diameter ([7]; 48 h): 3 mm
color of the colony ([8]; 24 h): RP
growth diameter ([8]; 24 h): 3 mm
color of the colony ([8]; 48 h): R
growth diameter ([8]; 48 h): 3 mm

Molecule: glycine-L-alanine-9-aminobenzo[a]phenoxazin-5-one [GA-ABP]
color of the colony ([1]; 24 h): I
growth diameter ([1]; 24 h): 1 mm
color of the colony ([1]; 48 h): I
growth diameter ([1]; 48 h): 2 mm
color of the colony ([2]; 24 h): R
growth diameter ([2]; 24 h): 3 mm
color of the colony ([2]; 48 h): R
growth diameter ([2]; 48 h): 3 mm
color of the colony ([3]; 24 h): I
growth diameter ([3]; 24 h): 2 mm
color of the colony ([3]; 48 h): R
growth diameter ([3]; 48 h): 2 mm
color of the colony ([4]; 24 h): R
growth diameter ([4]; 24 h): 3 mm
color of the colony ([4]; 48 h): R
growth diameter ([4]; 48 h): 3 mm
growth diameter ([5]; 24 h): 0 mm
growth diameter ([5]; 48 h): 0 mm
color of the colony ([6]; 24 h): I
growth diameter ([6]; 24 h): 3 mm
color of the colony ([6]; 48 h): I
growth diameter ([6]; 48 h): 3 mm
color of the colony ([7]; 24 h): R
growth diameter ([7]; 24 h): 3 mm
color of the colony ([7]; 48 h): R
growth diameter ([7]; 48 h): 3 mm
color of the colony ([8]; 24 h): RP
growth diameter ([8]; 24 h): 3 mm
color of the colony ([8]; 48 h): R
growth diameter ([8]; 48 h): 3 mm
